Measurements published in patent publication US20150306107A1, “SAA Derivative Compound Restores eNOS And Inhibits Oxidative Stress-Induced A Diseases In Hypoxia” (JANSFAT BIOTECHNOLOGY CO., LTD., priority 2014, published 2015).

Assays:
Format in all cases: in vivo, rat
hypoxic rats [1] = experiment: Hemodynamics of rats with hypoxic PAH, chronic hypoxia 21 days; settings: 5 mg/kg/day, p.o.
Excerpt: Int J Immunopathol Pharmacol 24:925, 2011). The heart weight and body weight ratio (HW/BW) of the rats treated with one of […] complex, Sildenafil or Sildenafil RX complex each measured on the 21st hypoxic day. All animal care and the experimental protocols of this study were approved by the Animal Care and Use Committee of the Kaohsiung Medical University. Male Wistar rats (200-250 g), provided by the National Laboratory Animal Breeding and Research Center (Taipei, Taiwan), were housed under constant temperature and controlled illumination. Food and water were available ad libitum. Normoxic rats were housed in room temperature air at normal atmospheric pressure (760 mm Hg). […] After completion of the exposure, tissues were prepared as indicated for contraction measurements, Western blot analysis, RNA extraction, or morphological analysis. […] Their breathing was normal and their body temperature was maintained at 37° C. […] The animals were then sacrificed by the administration of an overdose of urethane.

hypoxic rats [2] = experiment: Pulmonary artery wall thickness and muscularization (HE staining) after long-term hypoxia
Description: The right lobes of the rat lungs and heart of six rats from each group were cut and soaked in formalin, dehydrated through graded alcohols, and embedded in paraffin wax. The lung tissue specimens fixed with formalin (4%) were embedded in paraffin for one hour at 4° C., cut into 4-μm-thick sections, and subjected to H&E staining before examination by light microscope. In our histopathological study, we measured the thickening of the medial wall of the small intrapulmonary arteries under an Eclipse TE2000-S (Nikon) microscope. In the heart tissues, the 4-μm-thick paraffin sections were cut from paraffin-embedded tissue blocks and de-paraffinized by immersion in xylene and rehydrated as previously described (Bivalacqua T J, et al., PLoSONE 8: e68028. doi:10.1371/journal. pone.0068028). The slices were then dyed with H&E. After gently rinsing with water, each slide was dehydrated through graded alcohols and finally soaked in xylene twice. The relative cardiac weight of right ventricle (RV)/[left ventricle (LV)+intraventricular septum (S)] ratio (i.e. right heart index) was calculated using right ventricle/left ventricle+septum (RV/LV+S). Measurements were obtained with Histolab software (Microvision Instruments, Evry, France).

sGCα1 = experiment: Western blotting of sGCα1 in lung tissue after long-term hypoxia; settings: hypoxia 21 days; compared to normoxia control
PKG = experiment: Western blotting of PKG in lung tissue after long-term hypoxia; settings: hypoxia 21 days
Description: Whole right lung tissues of hypoxia-treated and untreated rats were isolated and cut into small strips and placed into an extraction buffer (Tris 10 mM, pH 7.0, NaCl 140 mM, PMSF 2 mM, DTT 5 mM, NP-40 0.5%, pepstatin A 0.05 mM and leupeptin 0.2 mM) for protein extraction, and then centrifuged at 12,500 g for 30 min. To measure the expression levels of the proteins, the total proteins were extracted and Western blotting analysis was performed as described previously (Bivalacqua T J, et al., 2013, TJ PLoSONE 8: e68028. doi:10.1371/journal. pone.0068028). Briefly, the protein extract was boiled to a ratio of 4:1 with a sample buffer (Tris 100 mM, pH 6.8, glycerol 20%, SDS 4% and bromophenol blue 0.2%). Electrophoresis was performed using 10% SDS-polyacrylamide gel (2 hr, 100 V, 40 mA, […] protein per lane). Separated proteins were transferred to PVDF membranes treated with 5% fat-free milk powder to block the nonspecific IgGs (90 min, 100 V) and incubated for one hour with a specific protein antibody. The blot was then incubated with anti-mouse or anti-goat IgG linked to alkaline phosphatase (1:1000) for 1 hr. Immunoreactive bands were visualized using horseradish peroxidase-conjugated secondary antibodies and subsequent electrochemiluminescence (ECL) detection (GE Healthcare Bio-Sciences Corp., Piscataway, N.J., U.S.A.). […]

ROCK II = experiment: Western blotting of ROCK II in lung tissue after long-term hypoxia; settings: hypoxia 21 days; hypoxia 144.7±12.6%

## Cn1c(=O)c2c(ncn2CCN2CCN(c3ccccc3Cl)CC2)n(C)c1=O.O=C1O[C@H]([C@@H](O)CO)C(O)=C1O [SPAAX-1 ascorbate complex, 7-[2-[4-(2-chlorobenzene)piperazinyl]ethyl]-1,3-dimethylxanthine.ascorbic acid]
Hypoxic rats [1]
  BW (body weight): 28.8 ± 7.9 g
Hypoxic rats [1]; normoxia 12.9 ± 0.9, hypoxia 26.5 ± 0.6
  MPAP (mean pulmonary arterial pressure): 16.9±1.1 mmHg
Hypoxic rats [2]; hypoxia 21 days, 5 mg/kg/day
  Small pulmonary arterial morphology (<150 μm): highly improved
Hypoxic rats [2]; hypoxia 21 days, 5 mg/kg/day, hypoxia 165.8±5.4%
  hypoxia-induced pulmonary artery wall thickness: inhibited
Hypoxic rats [2]; hypoxic rats, versus vehicle only
  muscularizations of distal pulmonary artery (HE staining): significantly lower
sGCα1
  sGCα1 expression in lung tissue: 40.4±8.4%
PKG
  PKG expression in lung tissue: 85.0±12.9%
ROCK II
  ROCKII expression in lung tissue: 50.32±7.9%
